Read-outs that look alike come from different tables or passages of the source.
Legend:
[1] = target: human HSP90 alpha protein (HSP90 N-terminal protein, amino acids 2-236) (Homo sapiens (Human), UniProt P07900); experiment: Measurement of HSP90-binding activity (AlphaScreen competitive assay, biotin-labeled geldanamycin); details: read-out: HSP-binding activity IC50
SK-BR-3 cells = experiment: Measurement of cell growth inhibition (crystal violet staining method); type: cell-based
[2] = concentration inhibiting binding of biotin-labeled geldanamycin (40 nM) to purified HSP90 to 50% of control
[3] = Homo sapiens, breast cancer SK-BR-3 cells, 72 hr culture with test substance

Molecule | IC50 [1, 2] | IC50 (SK-BR-3 cells; [3]) | IC50 [1] | IC50 (SK-BR-3 cells; Homo sapiens, SK-BR-3, 72 h) | IC50 (SK-BR-3 cells)
CC(C)c1nn(-c2ccc(C(N)=O)c(N[C@H]3CC[C@H](O)CC3)c2)c2cncc(-c3cnc4ccccc4c3)c12 [Example 5, 2-(Trans-4-hydroxycyclohexylamino)-4-{3-isopropyl-4-(quinolin-3-yl)-1H-pyrazolo[3,4-c]pyridin-1-yl}benzamide] | – | – | 160 nM | 110 nM | –
Cc1cn(-c2ccc(C(N)=O)c(N[C@@H]3CCCC[C@H]3N)c2)c2nccc(-c3cnc4ccccc4c3)c12 (relative stereo) [Example 64, 2-(Trans-2-aminocyclohexylamino)-4-{3-methyl-4-(quinolin-3-yl)-1H-pyrrolo[2,3-b]pyridin-1-yl}benzamide] | 420 nM | 590 nM | – | – | –
CCc1cc(C(N)=O)ccc1-n1nc(C(C)C)c2c(-n3cnc(-c4cnn(C)c4)c3)ccnc21 [Example 102, 3-Ethyl-4-{3-isopropyl-4-(4-(1-methyl-1H-pyrazol-4-yl)-1H-imidazol-1-yl)-1H-pyrazolo[3,4-b]pyridin-1-yl}benzamide] | 210 nM | 170 nM | – | – | –
CCc1cn(-c2ccc(C(N)=O)c(NCCN3CCOCC3)c2)c2nccc(-c3cnc4ccccc4c3)c12 [Example 73, 4-{3-Ethyl-4-(quinolin-3-yl)-1H-pyrrolo[2,3-b]pyridin-1-yl}-2-(2-morpholinoethylamino)benzamide] | 590 nM | 360 nM | – | – | –
CC(C)c1nn(-c2ccc(C(N)=O)c(NC3CCC(O)CC3)c2)c2nccc(-n3cnc(-c4ccco4)c3)c12 (centres unmarked) [Example 88, 4-{4-(4-(Furan-2-yl)-1H-imidazol-1-yl)-3-isopropyl-1H-pyrazolo[3,4-b]pyridin-1-yl}-2-(4-hydroxycyclohexylamino)benzamide] | 680 nM | 230 nM | – | – | –
2-(4-Hydroxycyclohexylamino)-4-{3-methyl-4-(4-(pyridin-3-yl)-1H-imidazol-1-yl)-1H-pyrazolo[2,3-b]pyridin-1-yl}benzamide [Example 98] | – | – | 70 nM | – | 10 nM
CC(C)c1nn(-c2ccc(C(N)=O)c(N[C@H]3CC[C@H](O)CC3)c2)c2ccnc(-c3cnc4ccccc4c3)c12 [Example 4, 2-(Trans-4-hydroxycyclohexylamino)-4-{3-isopropyl-4-(quinolin-3-yl)-1H-pyrazolo[4,3-c]pyridin-1-yl}benzamide] | – | – | 1600 nM | 820 nM | –
CC(C)c1nn(-c2ccc(C(N)=O)c(NC3CCC(O)CC3)c2)c2nccc(-n3cnc(-n4ccnc4)c3)c12 (centres unmarked) [Example 92, 4-{4-(1′H-1,4′-Biimidazol-1′-yl)-3-isopropyl-1H-pyrazolo[3,4-b]pyridin-1-yl}-2-(4-hydroxycyclohexylamino)benzamide] | 130 nM | 70 nM | – | – | –
CC(C)c1cc(C(N)=O)ccc1-n1nc(C(C)C)c2c(-n3cnc(-c4cnn(C)c4)c3)ccnc21 [Example 104, 3-Isopropyl-4-{3-isopropyl-4-(4-(1-methyl-1H-pyrazol-4-yl)-1H-imidazol-1-yl)-1H-pyrazolo[3,4-b]pyridin-1-yl}benzamide] | 120 nM | 200 nM | – | – | –
Cc1cc(-n2nc(C(C)C)c3c(-c4cnc5ccccc5c4)ccnc32)ccc1C(N)=O [Example 81, 4-{3-Isopropyl-4-(quinolin-3-yl)-1H-pyrazolo[3,4-b]pyridin-1-yl}-2-methylbenzamide] | 1030 nM | 630 nM | – | – | –
CCc1cn(-c2ccc(C(N)=O)c(N[C@H]3CC[C@H](OC(=O)CN)CC3)c2)c2nccc(-c3cnc4ccccc4c3)c12 [Example 42, Trans-4-{2-carbamoyl-5-{3-ethyl-4-(quinolin-3-yl)-1H-pyrrolo[2,3-b]pyridin-1-yl}phenylamino}cyclohexyl-2-aminoacetate dimethanesulfonate] | 190 nM | – | – | 30 nM | –
CC(C)c1nn(-c2ccc(C(N)=O)c(NC3CCC(O)CC3)c2)c2nccc(-n3cnc(-c4cnn(CCOCc5ccccc5)c4)c3)c12 (centres unmarked) [Example 94, 4-{4-(4-(1-(Benzyloxyethyl)-1H-pyrazol-4-yl)-1H-imidazol-1-yl)-3-isopropyl-1H-pyrazolo[3,4-b]pyridin-1-yl}-2-(4-hydroxycyclohexylamino)benzamide] | 470 nM | 200 nM | – | – | –
COc1cncc(-c2ccnc3c2c(C(C)C)nn3-c2ccc(C(N)=O)c(N[C@H]3CC[C@H](O)CC3)c2)c1 [Example 11, 2-(Trans-4-hydroxycyclohexylamino)-4-{3-isopropyl-4-(5-methoxypyridin-3-yl)-1H-pyrazolo[3,4-b]pyridin-1-yl}benzamide] | 550 nM | 160 nM | – | – | –
CC(C)c1nn(-c2ccc(C(N)=O)c(NCCc3ccccn3)c2)c2nccc(-c3cnc4ccccc4c3)c12 [Example 28, 4-{3-Isopropyl-4-(quinolin-3-yl)-1H-pyrazolo[3,4-b]pyridin-1-yl}-2-{2-(pyridin-2-yl)ethylamino}benzamide] | 400 nM | 280 nM | – | – | –
CC(C)c1nn(-c2ccc(C(N)=O)c(N[C@H]3CC[C@H](O)CC3)c2)c2nccc(-c3cnc4c(c3)CCCC4)c12 [Example 19, 2-(Trans-4-hydroxycyclohexylamino)-4-{3-isopropyl-4-(5,6,7,8-tetrahydroquinolin-3-yl)-1H-pyrazolo[3,4-b]pyridin-1-yl}benzamide] | 1190 nM | 470 nM | – | – | –

Second part, led by results:

IC50 [1, 2] | IC50 (SK-BR-3 cells; [3]) | Molecule | IC50 [1] | IC50 (SK-BR-3 cells; Homo sapiens, SK-BR-3, 72 h) | IC50 (SK-BR-3 cells)
260 nM | 70 nM | CC(C)c1nn(-c2ccc(C(N)=O)c(NCC(F)F)c2)c2nccc(-n3cnc(-c4cnn(C)c4)c3)c12 [Example 113, 2-(2,2-Difluoroethylamino)-4-{3-isopropyl-4-(4-(1-methyl-1H-pyrazol-4-yl)-1H-imidazol-1-yl)-1H-pyrazolo[3,4-b]pyridin-1-yl}benzamide] | – | – | –
350 nM | 590 nM | CC(C)c1nn(-c2ccc(C(N)=O)cc2C#N)c2nccc(-n3cnc(-c4cnn(C)c4)c3)c12 [Example 124, 3-Cyano-4-{3-isopropyl-4-(4-(1-methyl-1H-pyrazol-4-yl)-1H-imidazol-1-yl)-1H-pyrazolo[3,4-b]pyridin-1-yl}benzamide] | – | – | –
230 nM | 1130 nM | CC(C)c1nn(-c2ccc(C(N)=O)cc2CN(C)C)c2nccc(-n3cnc(-c4cnn(C)c4)c3)c12 [Example 126, 3-{(Dimethylamino)methyl}-4-{3-isopropyl-4-(4-(1-methyl-1H-pyrazol-4-yl)-1H-imidazol-1-yl)-1H-pyrazolo[3,4-b]pyridin-1-yl}benzamide] | – | – | –
230 nM | 270 nM | Cn1cc(-c2cn(-c3ccnc4c3c(C(F)(F)F)nn4-c3ccc(C(N)=O)cc3C#N)cn2)cn1 [Example 169, 3-Cyano-4-{4-(4-(1-methyl-1H-pyrazol-4-yl)-1H-imidazol-1-yl)-3-(trifluoromethyl)-1H-pyrazolo[3,4-b]pyridin-1-yl}benzamide] | – | – | –
100 nM | 200 nM | Cn1cc(-c2cn(-c3ccnc4c3c(C(F)(F)F)nn4-c3ccc(C(N)=O)cc3N)cn2)cn1 [Example 158, 3-Amino-4-{4-(4-(1-methyl-1H-pyrazol-4-yl)-1H-imidazol-1-yl)-3-(trifluoromethyl)-1H-pyrazolo[3,4-b]pyridin-1-yl}benzamide] | – | – | –
180 nM | 80 nM | CCNc1cc(-n2nc(C(C)C)c3c(-n4cnc(-c5cnn(C)c5)c4)ccnc32)ccc1C(N)=O [Example 109, 2-(Ethylamino)-4-{3-isopropyl-4-(4-(1-methyl-1H-pyrazol-4-yl)-1H-imidazol-1-yl)-1H-pyrazolo[3,4-b]pyridin-1-yl}benzamide] | – | – | –
570 nM | 280 nM | CCNc1cc(-n2nc(C(C)C)c3c(-n4cnc(-c5cccnc5)c4)ccnc32)ccc1C(N)=O [Example 139, 2-(Ethylamino)-4-{3-isopropyl-4-(4-(pyridin-3-yl)-1H-imidazol-1-yl)-1H-pyrazolo[3,4-b]pyridin-1-yl}benzamide] | – | – | –
660 nM | 1540 nM | CC(C)c1nn(-c2ccc(C(N)=O)cc2Cl)c2nccc(-n3cnc(-c4ccc(C(=O)N(C)C)cc4)c3)c12 [Example 151, 4-{1-(1-(4-Carbamoyl-2-chlorophenyl)-3-isopropyl-1H-pyrazolo[3,4-b]pyridin-4-yl)-1H-imidazol-4-yl}-N,N-dimethylbenzamide] | – | – | –
280 nM | 430 nM | CC(C)c1cc(C(N)=O)ccc1-n1nc(C(C)C)c2c(-n3cnc(-c4cccnc4)c3)ccnc21 [Example 137, 3-Isopropyl-4-{3-isopropyl-4-(4-(pyridin-3-yl)-1H-imidazol-1-yl)-1H-pyrazolo[3,4-b]pyridin-1-yl}benzamide] | – | – | –
210 nM | 550 nM | Cc1cc(C(N)=O)ncc1-n1nc(C(C)C)c2c(-n3cnc(-c4cnn(C)c4)c3)ccnc21 [Example 118, 5-{3-Isopropyl-4-(4-(1-methyl-1H-pyrazol-4-yl)-1H-imidazol-1-yl)-1H-pyrazolo[3,4-b]pyridin-1-yl}-4-methylpicolinamide] | – | – | –
410 nM | 140 nM | CC(C)c1nn(-c2ccc(C(N)=O)c(NC(C)(C)C)c2)c2nccc(-n3cnc(-c4cccnc4)c3)c12 [Example 141, 2-(Tert-butylamino)-4-{3-isopropyl-4-(4-(pyridin-3-yl)-1H-imidazol-1-yl)-1H-pyrazolo[3,4-b]pyridin-1-yl}benzamide] | – | – | –
190 nM | 120 nM | CC(C)c1nn(-c2ccc(C(N)=O)cc2NCC(F)F)c2nccc(-n3cnc(-c4cnn(C)c4)c3)c12 [Example 123, 3-(2,2-Difluoroethylamino)4-{3-isopropyl-4-(4-(1-methyl-1H-pyrazol-4-yl)-1H-imidazol-1-yl)-1H-pyrazolo[3,4-b]pyridin-1-yl}benzamide] | – | – | –
130 nM | 270 nM | CCc1cc(C(N)=O)ccc1-n1nc(C(C)C)c2c(-n3cnc(-c4cccnc4)c3)ccnc21 [Example 136, 3-Ethyl-4-{3-isopropyl-4-(4-(pyridin-3-yl)-1H-imidazol-1-yl)-1H-pyrazolo[3,4-b]pyridin-1-yl}benzamide] | – | – | –

From patent US8779142B2, “Azabicyclo compound and salt thereof” (Taiho Pharmaceutical Co., Ltd., priority 2009, dated 2014)
